Patent publication US7449477B2, “7-phenyl-isoquinoline-5-sulfonylamino derivatives as inhibitors of akt (protein kinase B)” (Eli Lilly and Company, priority 2003, dated 2008)
pIC50: −log10 of the molar value. Where a name gives a salt, the structure may show the parent alone.

Target: T1, active human Akt1 (Homo sapiens, UniProt P31749)
T1 construct: Active human recombinant Akt1 (full-length) purified from Sf9 insect cells; purchased Upstate Biotechnology, Inc. 14-276; host or cells: Sf9 insect cells
T1 sequence (P31749 whole entry): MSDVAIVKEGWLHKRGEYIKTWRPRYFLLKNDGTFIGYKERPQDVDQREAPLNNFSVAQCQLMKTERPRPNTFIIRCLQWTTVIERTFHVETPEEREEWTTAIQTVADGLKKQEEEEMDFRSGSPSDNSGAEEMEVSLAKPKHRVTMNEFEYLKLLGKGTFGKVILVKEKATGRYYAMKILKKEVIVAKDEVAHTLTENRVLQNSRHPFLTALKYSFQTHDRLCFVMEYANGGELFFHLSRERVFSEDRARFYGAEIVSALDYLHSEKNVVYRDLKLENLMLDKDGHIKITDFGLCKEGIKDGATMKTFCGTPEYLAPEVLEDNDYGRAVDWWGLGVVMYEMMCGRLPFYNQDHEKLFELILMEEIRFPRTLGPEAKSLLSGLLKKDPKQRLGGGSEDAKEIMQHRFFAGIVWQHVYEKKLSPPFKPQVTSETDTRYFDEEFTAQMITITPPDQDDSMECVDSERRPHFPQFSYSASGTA
Assay: Akt1 Phosphorylation Assay (phosphocellulose filter-binding, 33P-Crosstide)
Format: biochemical
Conditions: active human recombinant Akt1 (full-length) 10 nM; 12.5 μM Crosstide; 20 μM ATP; 30 minutes at room temperature
Experimental: Akt1 Phosphorylation Assay
The assay described measures the phosphorylation of Crosstide by active human Akt1 and other Akt isoforms. Crosstide contains a consensus sequence derived from Akt substrates GSK3b and forkhead transcription factors (FKs). The ^33P-labeled Crosstide substrate is captured by phosphocellulose membrane filter plates.
Active human recombinant Akt1 (full-length) purified from Sf9 insect cells is from Upstate Biotechnology, Inc. (Cat. #14-276, 405 μg/ml). Crosstide substrate, NH2-GRPRTSSFAEG-COOH (M.W.1164) is purchased from Multiple Peptide System (Cat. # L59/GR145-153).
Solution (A): 20% DMSO (dimethylsulphoxide) or Compound in 20% DMSO; Solution (B): Assay Buffer Mix: 31.25 μM Crosstide, 37.5 mM MgCl2, 87.5 mM HEPES, pH 7.3, 50 μM ATP γ-^33P-ATP, 0.05 μCi/μl; Solution (C): Akt Kinase Mix: 31.25 mM HEPES, pH 7.3; 1 mM DTT, 25 nM UBI Akt1.
Procedure for Phosphocellulose Filter-Binding Assay
Ten μl of Solution (A) are first mixed with 20 μl Solution (B). The enzymatic reaction is initiated by adding 20 μl Solution (C) to the mixture. (Final concentration or amount in a 50-μl reaction mix: 4% DMSO or various compound concentration in 4% DMSO; 12.5 μM Crosstide; 15 mM MgCl2; 35 mM HEPES, pH7.3; 20 μM ATP; 1 μCi γ-^33P-ATP; 0.4 mM DTT; 10 nM UBI Akt1.) The reactions are performed in 96-well microtiter plates.
After 30 minutes at room temperature, the reaction is terminated by adding 80 μl of 10% H3PO4. An aliquot of 100 μl from each well is transferred to the phosphocellulose filter plate (Millipore MultiScreen, Catalog #MAPHN0B50). After 30 minutes, the reaction mix is filtered with a Millipore manifold following by 3 washes with 0.5% H3PO4. The filter is then vacuum-dried and the plate is fitted onto a Packard carrier. 100 μl/well Microscint20 are added and the contents are counted in a Packard Top Count.

Row | pIC50 | SMILES
1 | ≥ 5.70 | CS(=O)(=O)Nc1cccc(-c2cc(S(=O)(=O)NCCNCCCc3ccc([N+](=O)[O-])cc3)c3ccncc3c2)c1 [Example 94, 7-(3-methanesulfonylamino-phenyl)-isoquinoline-5-sulfonic acid {2-[3-(4-nitro-phenyl)-propylamino]-ethyl}-amide, dihydrochloride salt]
2 | ≥ 5.70 | N#Cc1ccc(C(O)CCNCCNS(=O)(=O)c2cc(-c3ccccc3)cc3cnccc23)cc1 (centres unmarked) [Example 75, 7-Phenyl-isoquinoline-5-sulfonic acid [2-(3-hydroxy-3-(4-cyanophenyl)-propylamino)-ethyl]-amide, dihydrochloride salt]
3 | ≥ 5.70 | O=S(=O)(NCCNCCCc1ccc(F)cc1F)c1cc(-c2ccccc2)cc2cnccc12 [Example 70, 7-Phenyl-isoquinoline-5-sulfonic acid {2-[3-(2,4-difluorophenyl)-propylamino]-ethyl}-amide, dihydrochloride salt]
4 | ≥ 5.70 | N#Cc1ccc(CC(O)CNCCNS(=O)(=O)c2cc(-c3ccccc3)cc3cnccc23)cc1 (centres unmarked) [Example 111, 7-Phenyl-isoquinoline-5-sulfonic acid {2-[3-(4-cyano-phenyl)-2-hydroxy-propylamino]-ethyl}-amide, dihydrochloride salt, dihydrochloride salt, dihydrochloride salt, dihydrochloride …]
5 | ≥ 5.70 | Cc1ccc([N+](=O)[O-])cc1CCCNCCNS(=O)(=O)c1cc(-c2ccccc2)cc2cnccc12 [Example 39, 7-Phenyl-isoquinoline-5-sulfonic acid {2-[3-(2-methyl-5-nitrophenyl)-propylamino]-ethyl}-amide, dihydrochloride salt]
6 | ≥ 5.70 | O=[N+]([O-])c1ccc(CCCNCCNS(=O)(=O)c2cc(-c3ccccc3)cc3cnccc23)c(-c2ccccc2)c1 [Example 42, 7-Phenyl-isoquinoline-5-sulfonic acid {2-[3-(5-nitro-biphenyl-2-yl)-propylamino]-ethyl}-amide, dihydrochloride salt]
7 | ≥ 5.70 | O=S(=O)(NCCNCCCc1cccc(Cl)c1Cl)c1cc(-c2ccccc2)cc2cnccc12 [Example 66, 7-Phenyl-isoquinoline-5-sulfonic acid {2-[3-(2,3-dichlorophenyl)-propylamino]-ethyl}-amide, dihydrochloride salt]
8 | ≥ 5.70 | CN(C)CCOc1cc(Cl)ccc1CCCNCCNS(=O)(=O)c1cc(-c2ccccc2)cc2cnccc12 [Example 59, 7-Phenyl-isoquinoline-5-sulfonic acid {2-[3-(4-chloro-2-(2-dimethylamino-ethoxy)-phenyl)-propylamino]-ethyl}-amide, dihydrochloride salt]
9 | ≥ 5.70 | O=[N+]([O-])c1ccc(CCCNCCNS(=O)(=O)c2cc(-c3ccccc3O)cc3cnccc23)cc1 [Example 91, 7-(2-hydroxy-phenyl)-isoquinoline-5-sulfonic acid {2-[3-(4-nitro-phenyl)-propylamino]-ethyl}-amide, dihydrochloride salt]
10 | ≥ 5.70 | O=S(=O)(NCCNCCCc1ccc(Cl)cc1C1CCNCC1)c1cc(-c2ccccc2)cc2cnccc12 [Example 53, 7-Phenyl-isoquinoline-5-sulfonic acid {2-[3-(4-chloro-2-(piperidin-4-yl)-phenyl)-propylamino]-ethyl}-amide, trihydrochloride salt]
11 | ≥ 5.70 | O=S(=O)(NCCNCCCc1ccc(Br)cc1)c1cc(-c2ccccc2)cc2cnccc12 [Example 4, 7-Phenyl-isoquinoline-5-sulfonic acid {2-[3-(4-bromophenyl)-propylamino]-ethyl}-amide, dihydrochloride salt]
12 | ≥ 5.70 | O=[N+]([O-])c1ccc(C(O)C(O)CNCCNS(=O)(=O)c2cc(-c3ccccc3)cc3cnccc23)cc1 (centres unmarked) [Example 87, 7-Phenyl-isoquinoline-5-sulfonic acid [2-(2,3-dihydroxy-3-(4-nitrophenyl)-propylamino)-ethyl]-amide, dihydrochloride salt]
13 | ≥ 5.70 | O=S(=O)(NCCNCCCc1cccc(O)c1)c1cc(-c2ccccc2)cc2cnccc12 [Example 18, 7-Phenyl-isoquinoline-5-sulfonic acid {2-[3-(3-hydroxyphenyl)-propylamino]-ethyl}-amide, dihydrochloride salt]

More lines, now with the values behind:

Row | SMILES | pIC50
14 | CN(C)S(=O)(=O)c1ccc(CCCNCCNS(=O)(=O)c2cc(-c3ccccc3)cc3cnccc23)cc1 [Example 24, 7-Phenyl-isoquinoline-5-sulfonic acid {2-[3-(4-(N,N-dimethyl-aminosulfonyl)phenyl)-propyl-amino]-ethyl}-amide, dihydrochloride salt] | ≥ 5.70
15 | O=[N+]([O-])c1cccc(-c2cc(Cl)ccc2CCCNCCNS(=O)(=O)c2cc(-c3ccccc3)cc3cnccc23)c1 [Example 47, 7-Phenyl-isoquinoline-5-sulfonic acid {2-[3-(5-chloro-3′-nitro-biphenyl-2-yl)-propylamino]-ethyl}-amide, dihydrochloride salt] | ≥ 5.70
16 | O=C(O)c1cc([N+](=O)[O-])ccc1CCCNCCNS(=O)(=O)c1cc(-c2ccccc2)cc2cnccc12 [Example 64, 7-Phenyl-isoquinoline-5-sulfonic acid {2-[3-(2-carboxy-4-nitrophenyl)-propylamino]-ethyl}-amide, dihydrochloride salt] | ≥ 5.70
17 | COc1ccc(CCCNCCNS(=O)(=O)c2cc(-c3ccc(O)cc3)cc3cnccc23)c(F)c1 [Example 108, 7-(4-Hydroxy-phenyl)-isoquinoline-5-sulfonic acid {2-[3-(2-fluoro-4-methoxy-phenyl)-propylamino]-ethyl}-amide] | ≥ 5.70
18 | O=S(=O)(NCCNCCCc1ccc(Cl)cc1OCCN1CCOCC1)c1cc(-c2ccccc2)cc2cnccc12 [Example 69, 7-Phenyl-isoquinoline-5-sulfonic acid (2-{3-[4-chloro-2-(2-morpholino-4-yl-ethoxy)-phenyl]-propylamino}-ethyl)-amide, dihydrochloride salt] | ≥ 5.70
19 | O=S(=O)(NCCNCCCc1ccc(OC(F)F)cc1)c1cc(-c2ccccc2)cc2cnccc12 [Example 30, 7-Phenyl-isoquinoline-5-sulfonic acid {2-[3-(4-difluoromethoxy-phenyl)-propylamino]-ethyl}-amide, dihydrochloride salt] | ≥ 5.70
20 | O=[N+]([O-])c1ccc(C(O)C(O)CNCCNS(=O)(=O)c2cc(-c3ccccc3)cc3cnccc23)cc1 (single isomer, unassigned; isomer 1) [Example 88, 7-Phenyl-isoquinoline-5-sulfonic acid [2-(2,3-dihydroxy-3-(4-nitrophenyl)-propylamino)-ethyl]-amide isomer 1, dihydrochloride salt] | ≥ 5.70
21 | Cc1cc(C#N)ccc1CCCNCCNS(=O)(=O)c1cc(-c2ccccc2)cc2cnccc12 [Example 104, 7-Phenyl-isoquinoline-5-sulfonic acid {2-[3-(4-cyano-2-methyl-phenyl)-propylamino]-ethyl}-amide, dihydrochloride salt] | ≥ 5.70
22 | O=S(=O)(NCCNCCCc1cccc(O)c1)c1cc(-c2cccc(O)c2)cc2cnccc12 [Example 107, 7-(3-Hydroxy-phenyl)-isoquinoline-5-sulfonic acid {2-[3-(3-hydroxy-phenyl)-propylamino]-ethyl}-amide] | ≥ 5.70
23 | O=[N+]([O-])c1ccc(CCCNCCNS(=O)(=O)c2cc(-c3ccccc3)cc3cnccc23)cc1 [Example 3, 7-Phenyl-isoquinoline-5-sulfonic acid {2-[3-(4-nitrophenyl)-propylamino]-ethyl}-amide, dihydrochloride salt] | ≥ 5.70
24 | Nc1ccc(-c2cc(S(=O)(=O)NCCNCCCc3ccc([N+](=O)[O-])cc3)c3ccncc3c2)cc1 [Example 90, 7-(4-aminophenyl)-isoquinoline-5-sulfonic acid [2-(3-(4-nitrophenyl)-propylamino)-ethyl]-amide, trihydrochloride salt] | ≥ 5.70
25 | N#Cc1cccc(CCCNCCNS(=O)(=O)c2cc(-c3ccccc3)cc3cnccc23)c1 [Example 32, 7-Phenyl-isoquinoline-5-sulfonic acid {2-[3-(3-cyanophenyl)-propylamino]-ethyl}-amide, dihydrochloride salt] | ≥ 5.70
26 | O=S(=O)(NCCNCCCc1ccc(OC(F)(F)C(F)F)cc1)c1cc(-c2ccccc2)cc2cnccc12 [Example 27, 7-Phenyl-isoquinoline-5-sulfonic acid {2-[3-(4-(1,1,2,2-tetrafluoroethoxy)phenyl)-propylamino]-ethyl}-amide, dihydrochloride salt] | ≥ 5.70
